Experimental data from patent EP4786487A1, “PEPTIDE” (Peptidream Inc, priority 2023, dated 2025).
Where two headings read alike, the source gives them in different places. Starred links: 1 amine or outer side, 2 acyl side, 3 side chain; linkers in the order of their positions; H or OH if unused. Positions of bridges follow the written chain, without caps; N, C: chain ends. Non-standard residues stand in square brackets, D forms with d. Residues, ends and D or L forms follow the SMILES beside them. *: point of attachment. X4 = CN(C)C(=O)Cn1cc(-c2ccc(C[C@H](N[*:1])C(=O)[*:2])cc2)cn1; Phe(4-(2-MeO-Ph)) = COc1ccccc1-c1ccc(C[C@H](N)C(=O)O)cc1; X10 = O=C([C@H](Cc1cn(Cc2ccccc2)c2ccccc12)N[*:1])[*:2]; Phe(3-OCH2COOH) = N[C@@H](Cc1cccc(OCC(=O)O)c1)C(=O)O; X11 = O=C([C@H](Cc1ccc(-c2ccccc2Cl)cc1)N[*:1])[*:2]; Trp(6-OH) = N[C@@H](Cc1c[nH]c2cc(O)ccc12)C(=O)O; Phe(4-COOH) = N[C@@H](Cc1ccc(C(=O)O)cc1)C(=O)O; NMePhe(4-Cl) = CN[C@@H](Cc1ccc(Cl)cc1)C(=O)O; Piperazinyl(4-CH2COOH) = O=C(O)CN1CCN(*)CC1; Piperidinyl(4-CH2COOH) = O=C(O)CC1CCN(*)CC1; Gly(N(CH2)3COOH) = O=C(O)CCCNCC(=O)O; X1 = CCCCCCC[C@H](N[*:1])C(=O)[*:2]; NMeF = CN[C@@H](Cc1ccccc1)C(=O)O; NMeE = CN[C@@H](CCC(=O)O)C(=O)O; X12 = O=C(O)CCC1CCN(*)CC1; NMeA = CN[C@@H](C)C(=O)O; Sar = CNCC(=O)O

How the values were obtained:
[1] = target: T1, Myostatin (Homo sapiens, UniProt O14793); assay: HepG2 reporter gene assay, Evaluation Procedure (2): 2-concentrations assay, myostatin inhibition; format: cell-based
T1 construct: active myostatin (also called mature myostatin) is a homodimer consisting of two C-terminal growth factor domains; purchased R&D systems 788-G8/CF
T1 sequence (O14793 267-375): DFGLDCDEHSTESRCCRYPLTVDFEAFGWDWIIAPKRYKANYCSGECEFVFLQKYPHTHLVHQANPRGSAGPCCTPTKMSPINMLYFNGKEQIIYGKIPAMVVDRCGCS
Method in brief: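 HepG2 cells (HB-8065, ATCC) carrying the transfected pGL3(CAGA)12-luc reporter plasmid were treated with myostatin (788-G8/CF, R&D systems) at a final concentration of 10 ng/mL plus peptide and incubated at 37°C, 5% CO2 for 20 to 24 hours. Luminescence was read after adding PBS mixed 1:1 with One-Glo substrate, and inhibition rate was calculated.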

[2] = target: T2, GDF-11 (Homo sapiens, UniProt O95390); assay: HepG2 reporter gene assay, Evaluation Procedure (2): 2-concentrations assay, GDF-11 inhibition; format: cell-based
T2 construct: purchased R&D systems 1958-GD-G8/CF
T2 sequence (O95390 299-407): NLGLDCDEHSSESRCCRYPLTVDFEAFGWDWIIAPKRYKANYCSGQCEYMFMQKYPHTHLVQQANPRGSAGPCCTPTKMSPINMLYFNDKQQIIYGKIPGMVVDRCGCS
Method in brief: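 HepG2 cells carrying the transfected pGL3(CAGA)12-luc reporter, a pGL3 vector with luciferase placed downstream of 12 CAGA repeats, were stimulated with GDF-11 at a final 10 ng/mL together with test peptide. Blank wells received no GDF-11 and no peptide. Plates were incubated 20 to 24 hours at 37°C with 5% CO2. Luminescence from One-Glo substrate was read to calculate percent inhibition.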

[3] = Table 7-3/7-4, myostatin 10 ng/mL, peptide at the higher of the 2 concentrations, HepG2, read-out: inhibition rate (myostatin inhibition assay)
[4] = Table 7-3/7-4, myostatin 10 ng/mL, peptide at the lower of the 2 concentrations, HepG2, read-out: inhibition rate (myostatin inhibition assay)
[5] = HepG2, first GDF-11 column of Table 7-3/7-4, GDF-11 10 ng/mL, peptide at the lower of the 2 concentrations, read-out: inhibition rate (GDF-11 inhibition assay)
[6] = HepG2, second GDF-11 column of Table 7-3/7-4, GDF-11 10 ng/mL, peptide at the higher of the 2 concentrations, read-out: inhibition rate (GDF-11 inhibition assay)
[7] = HepG2, read-out: inhibition rate (myostatin inhibition assay)
[8] = HepG2, read-out: inhibition rate (GDF-11 inhibition assay), Table 7-3/7-4, GDF-11 10 ng/mL, peptide at the higher of the 2 concentrations
[9] = HepG2, read-out: inhibition rate (GDF-11 inhibition assay), Table 7-3/7-4, GDF-11 10 ng/mL, peptide at the lower of the 2 concentrations

SMILES	inhibition at 0.1 µM [1, 3]	inhibition at 0.03 µM [1, 4]	inhibition [2, 5]	inhibition [2, 6]	inhibition at 0.03 µM [1, 7]	inhibition at 0.1 µM [1, 7]	inhibition [2, 8]	inhibition [2, 9]
CCCCCCC[C@@H]1NC(=O)[C@H](Cc2ccccc2)N(C)C(=O)[C@H](CCCNC(=N)N)NC(=O)[C@H](Cc2ccc(C(=O)O)cc2)NC(=O)[C@H](Cc2cccc(OCC(=O)O)c2)NC(=O)CN(C)C(=O)[C@H]([C@@H](C)CC)NC(=O)[C@H](Cc2ccc(Cl)cc2)N(C)C(=O)[C@H](Cc2ccc(O)cc2)NC(=O)[C@H](Cc2c[nH]c3ccccc23)NC(=O)[C@H](C)NC(=O)[C@H](C)NC(=O)CSC[C@H](C(=O)N2CCN(CC(=O)O)CC2)NC(=O)[C@H](Cc2ccccc2)N(C)C(=O)[C@H](C)N(C)C1=O [Myostatin_99_v308] ({CH2CO}-AAWY[NMePhe(4-Cl)]I[Sar][Phe(3-OCH2COOH)][Phe(4-COOH)]R[NMeF][X1][NMeA][NMeF][dC]-{Piperazinyl(4-CH2COOH)}; thioether N-15)	97%	87%	0%	3%				
CCCCCCC[C@@H]1NC(=O)[C@H](Cc2ccccc2)N(C)C(=O)[C@H](CCCNC(=N)N)NC(=O)[C@H](Cc2ccc(C(=O)O)cc2)NC(=O)[C@H](Cc2cccc(OCC(=O)O)c2)NC(=O)CN(C)C(=O)[C@H]([C@@H](C)CC)NC(=O)[C@H](Cc2ccccc2)N(C)C(=O)[C@H](Cc2ccc(O)cc2)NC(=O)[C@H](Cc2c[nH]c3ccccc23)NC(=O)[C@H](C)NC(=O)[C@H](C)NC(=O)CSC[C@H](C(=O)N2CCN(CC(=O)O)CC2)NC(=O)[C@H](Cc2ccccc2)N(C)C(=O)[C@H](CCC(=O)O)N(C)C1=O [Myostatin_99_v311] ({CH2CO}-AAWY[NMeF]I[Sar][Phe(3-OCH2COOH)][Phe(4-COOH)]R[NMeF][X1][NMeE][NMeF][dC]-{Piperazinyl(4-CH2COOH)}; thioether N-15)	100%	99%	0%	5%				
CCCCCCC[C@@H]1NC(=O)[C@H](Cc2ccccc2)N(C)C(=O)[C@H](CCCNC(=N)N)NC(=O)[C@H](Cc2ccc(C(=O)O)cc2)NC(=O)[C@H](Cc2cccc(OCC(=O)O)c2)NC(=O)CN(C)C(=O)[C@H]([C@@H](C)CC)NC(=O)[C@H](Cc2ccccc2)N(C)C(=O)[C@H](Cc2ccc(O)cc2)NC(=O)[C@H](Cc2cn(Cc3ccccc3)c3ccccc23)NC(=O)[C@H](C)NC(=O)[C@H](C)NC(=O)CSC[C@H](C(=O)N2CCN(CC(=O)O)CC2)NC(=O)[C@H](Cc2ccccc2)N(C)C(=O)[C@H](C)N(C)C1=O [Myostatin_99_v312] ({CH2CO}-AA[X10]Y[NMeF]I[Sar][Phe(3-OCH2COOH)][Phe(4-COOH)]R[NMeF][X1][NMeA][NMeF][dC]-{Piperazinyl(4-CH2COOH)}; thioether N-15)	100%	98%	0%	6%				
CCCCCCC[C@@H]1NC(=O)[C@H](Cc2ccccc2)N(C)C(=O)[C@H](CCCNC(=N)N)NC(=O)[C@H](Cc2ccc(C(=O)O)cc2)NC(=O)[C@H](Cc2cccc(OCC(=O)O)c2)NC(=O)CN(C)C(=O)[C@H]([C@@H](C)CC)NC(=O)[C@H](Cc2ccccc2)N(C)C(=O)[C@H](Cc2ccc(O)cc2)NC(=O)[C@H](Cc2c[nH]c3ccccc23)NC(=O)[C@H](C)NC(=O)[C@H](C)NC(=O)CSC[C@H](C(=O)N2CCC(CC(=O)O)CC2)NC(=O)[C@H](Cc2ccccc2)N(C)C(=O)[C@H](C)N(C)C1=O [Myostatin_99_v313] ({CH2CO}-AAWY[NMeF]I[Sar][Phe(3-OCH2COOH)][Phe(4-COOH)]R[NMeF][X1][NMeA][NMeF][dC]-{Piperidinyl(4-CH2COOH)}; thioether N-15)	100%	100%	12%	40%				
CCCCCCC[C@@H]1NC(=O)[C@H](Cc2ccccc2)N(C)C(=O)[C@H](CCCNC(=N)N)NC(=O)[C@H](Cc2ccc(C(=O)O)cc2)NC(=O)[C@H](Cc2cccc(OCC(=O)O)c2)NC(=O)CN(C)C(=O)[C@H]([C@@H](C)CC)NC(=O)[C@H](Cc2ccccc2)N(C)C(=O)[C@H](Cc2ccc(O)cc2)NC(=O)[C@H](Cc2c[nH]c3ccccc23)NC(=O)[C@H](C)NC(=O)[C@H](C)NC(=O)CSC[C@H](C(=O)N2CCC(CCC(=O)O)CC2)NC(=O)[C@H](Cc2ccccc2)N(C)C(=O)[C@H](C)N(C)C1=O [Myostatin_99_v314] ({CH2CO}-AAWY[NMeF]I[Sar][Phe(3-OCH2COOH)][Phe(4-COOH)]R[NMeF][X1][NMeA][NMeF][dC]-X12; thioether N-15)	100%	100%	2%	51%				
CCCCCCC[C@@H]1NC(=O)[C@H](Cc2ccccc2)N(C)C(=O)[C@H](CCCNC(=N)N)NC(=O)[C@H](Cc2ccc(C(=O)O)cc2)NC(=O)[C@H](Cc2cccc(OCC(=O)O)c2)NC(=O)[C@H](C)N(C)C(=O)[C@H]([C@@H](C)CC)NC(=O)[C@H](Cc2ccccc2)N(C)C(=O)[C@H](Cc2ccc(O)cc2)NC(=O)[C@H](Cc2c[nH]c3cc(O)ccc23)NC(=O)[C@H](C)NC(=O)CN(CCCC(=O)O)C(=O)CSC[C@H](C(=O)O)NC(=O)[C@H](Cc2ccccc2)N(C)C(=O)[C@H](C)N(C)C1=O [Myostatin_99_v318] ({CH2CO}-[Gly(N(CH2)3COOH)]A[Trp(6-OH)]Y[NMeF]I[NMeA][Phe(3-OCH2COOH)][Phe(4-COOH)]R[NMeF][X1][NMeA][NMeF][dC]-OH; thioether N-15)	100%	100%	0%	19%				
CCCCCCC[C@@H]1NC(=O)[C@H](Cc2ccccc2)N(C)C(=O)[C@H](CCCNC(=N)N)NC(=O)[C@H](Cc2ccc(C(=O)O)cc2)NC(=O)[C@H](Cc2ccc(-c3ccccc3Cl)cc2)NC(=O)[C@H](C)N(C)C(=O)[C@H]([C@@H](C)CC)NC(=O)[C@H](Cc2ccccc2)N(C)C(=O)[C@H](Cc2ccc(O)cc2)NC(=O)[C@H](Cc2ccc(-c3cnn(CC(=O)N(C)C)c3)cc2)NC(=O)[C@H](C)NC(=O)CN(CCCC(=O)O)C(=O)CSC[C@H](C(=O)O)NC(=O)[C@H](Cc2ccccc2)N(C)C(=O)[C@H](CCC(=O)O)N(C)C1=O [Myostatin_99_v321] ({CH2CO}-[Gly(N(CH2)3COOH)]A[X4]Y[NMeF]I[NMeA][X11][Phe(4-COOH)]R[NMeF][X1][NMeE][NMeF][dC]-OH; thioether N-15)					58%	91%	0%	0%
CCCCCCC[C@@H]1NC(=O)[C@H](Cc2ccccc2)N(C)C(=O)[C@H](CCCNC(=N)N)NC(=O)[C@H](Cc2ccc(C(=O)O)cc2)NC(=O)[C@H](Cc2ccc(-c3ccccc3OC)cc2)NC(=O)[C@H](C)N(C)C(=O)[C@H]([C@@H](C)CC)NC(=O)[C@H](Cc2ccccc2)N(C)C(=O)[C@H](Cc2ccc(O)cc2)NC(=O)[C@H](Cc2c[nH]c3cc(O)ccc23)NC(=O)[C@H](C)NC(=O)CN(CCCC(=O)O)C(=O)CSC[C@H](C(=O)O)NC(=O)[C@H](Cc2ccccc2)N(C)C(=O)[C@H](CCC(=O)O)N(C)C1=O [Myostatin_99_v323] ({CH2CO}-[Gly(N(CH2)3COOH)]A[Trp(6-OH)]Y[NMeF]I[NMeA][Phe(4-(2-MeO-Ph))][Phe(4-COOH)]R[NMeF][X1][NMeE][NMeF][dC]-OH; thioether N-15)					97%	99%	0%	0%
